Data taken from paper PMC7746945 (Neuro-Oncology, 2020).
Where “and” joins values, the source holds several entries; their conditions need not be identical. Equal entries are not always repeated. Entries after “also recorded” stand apart in the source; their conditions may differ.

Experiments:
[1] = Whole body autoradiography after single oral [14C]-olaparib; assay type: in vivo, pigmented rats; conditions: for radioactivity concentration, Blood / radioactivity concentration, Brain / radioactivity concentration, Choroid plexus / radioactivity concentration, Kidney cortex (outer) / radioactivity concentration, Large intestine mucosa / radioactivity concentration, Liver / radioactivity concentration, Meninges / radioactivity concentration, Pineal body / radioactivity concentration, Plasma / radioactivity concentration, Small intestine mucosa / radioactivity concentration, Spinal cord: rat, oral [14C]-olaparib 15 mg/kg
Procedure: (§1) Canine kidney epithelial cells, stably expressing human MDR1 cDNA (Madin-Darby canine kidney type II [MDCKII]–MDR1 cells) or empty vector (MDCKII control), were used to model the intact BBB and determine permeability coefficients of (^14C)-olaparib in the presence of ketoconazole (25 μM). Whole body autoradiography was performed on male pigmented rats after single oral administration of [^14C]-olaparib (15 mg/kg; 5 MBq/kg). For autoradiography studies, animal care and experiments were carried out in accordance with AstraZeneca guidelines, which comply with UK standards. […] Xenograft experiments were performed under the relevant UK Home Office Project Licence and carried out with ethical approval from the University of Glasgow under the Animal (Scientific Procedures) Act 1986 and the EU directive 2010. Mice were maintained in individually ventilated cages with environmental enrichment and following the guidelines of ARRIVE (Animal Research: Reporting of In Vivo Experiments). […] Ratiometric t-test analysis determined SER confidence intervals and P-values. Further details are available in the Supplementary Material.
(§2) Apparent permeability coefficients were calculated for apical to basolateral (Papp a‒b) and basolateral to apical transport (Papp b‒a) as described in Methods. […] (B) Single oral doses of 15 mg/kg [14C]-olaparib were administered to male pigmented rats that were subsequently culled, sectioned, and subjected to whole body autoradiography at the timepoints shown. Radioactivity was excluded from the central nervous system in all animals at all timepoints. […] Blood, tumor, and contralateral (non tumor bearing) brain were harvested and snap frozen at the time points shown. […] Note different y-axis scales.
For autoradiography studies, animal care and experiments were carried out in accordance with AstraZeneca guidelines. Male and female pigmented rats and female BALB/c nu/nu mice bearing subcutaneous HCT-116 colorectal carcinoma xenografts were treated with 15 mg/kg [^14C]-olaparib. Animals were culled by asphyxiation, carcasses frozen in hexane and solid carbon dioxide then subjected to whole body autoradiography. Radioactivity concentrations in tissue were quantified from whole-body autoradiograms using a validated image analysis system.

recurrent GBM = test: Efficacy: progression-free survival at 6 months (RANO); assay type: in vivo, human; conditions: olaparib with TMZ
Procedure: Secondary endpoints included PFS at 6 months (PFS-6, assessed radiologically using the RANO criteria) and radiological measurement of BBB permeability and perfusion by diffusion weighted and dynamic contrast-enhanced (DCE) MRI. […] Further details of the imaging protocol are provided in the Supplementary Material. Confidence intervals for PFS data were calculated using the exact binomial distribution.

[2] = Directional transport of [14C]-olaparib across MDCKII control (empty vector) monolayers; assay type: in vitro ADME, canine; conditions: dog, MDCK
Procedure: as §1, §2
Monolayers were cultured in Dulbeco’s Modified Eagle Medium (DMEM) supplemented with glucose (4.5 g/L), 10% fetal calf serum, penicillin and streptomycin on semi-permeable filter inserts (Transwell plates 3401, Costar, Cambridge, MA) for three days. Under these conditions MDR1 localises to the apical plasma membrane. Monolayer integrity was assessed by transepithelial electrical resistance (TEER) measurement then inserts washed with Hank’s Balanced Salt Solution (HBSS) and transferred to 12-well plates containing HBSS (to measure apical to basal transport, a – b) or [14C]-olaparib diluted in HBSS (dose solution, to measure basal to apical transport, b – a). After addition of dose solution (a – b) or HBSS (b – a) to the apical chamber, samples of apical and basolateral compartments were collected immediately after dosing and after 120 minutes incubation. Three concentrations of 14C-olaparib were tested (0.1, 1 and 10 µM), each in three replicates. Radioactivity was determined by liquid scintillation counting. […] Transport of olaparib or reference substrate cimetidine was determined in MDCKII-BCRP cells. Apparent permeability coefficients (Papp) were calculated:
Efflux ratio = Papp b - a /a - b = Papp b - a / Papp a - b (mean)

[3] = of 16 RP2D patients, olaparib with TMZ

O=C(c1cc(Cc2n[nH]c(=O)c3ccccc23)ccc1F)N1CCN(C(=O)C2CC2)CC1 [olaparib, 4-[3-(4-cyclopropanecarbonylpiperazine-1-carbonyl)-4-fluorobenzyl]-2H-phthalazin-1-one]
patients needing dose reductions for neutropenia (grade 3) and thrombocytopenia (grade 2) (cohort 1, olaparib with TMZ): 2
DLT (cohort 3, olaparib with TMZ, one DLT): grade 3 vomiting
toxicity and tolerability of schedule (cohort 4, olaparib with TMZ, one patient): toxic death associated with pancytopenia, septic shock, and renal failure
grade 2 nausea, patients [3]: 1
grade 2 pruritus, patients [3]: 1
grade 2 vomiting, patients [3]: 1
grade 3–4 anemia, patients [3]: 3
grade 3–4 lymphopenia, patients [3]: 7
grade 3–4 neutropenia, patients [3]: 2
grade 3–4 thrombocytopenia, patients [3]: 4
patients with grade 3–4 hematological toxicities [3]: 7
effect on TMZ-related hematological toxicity (olaparib with TMZ): exacerbated
MTD / RP2D, olaparib dose (once daily, days 1–3 per week, with TMZ 75 mg/m^2 daily for 42 days): 150 mg
radioactivity in brain or spinal cord (brain penetration) ([1]; male and female rats, single [14C]-olaparib 15 mg/kg, 5 MBq/kg, any timepoint): no brain penetration; also recorded: undetectable
radioactivity concentration, Blood ([1]; 1 hr): 2.44 nmol equivalents of olaparib per gram of tissue
radioactivity concentration, Brain ([1]; 1 hr): BLQ
radioactivity concentration, Choroid plexus ([1]; 1 hr): 0.618 nmol equivalents of olaparib per gram of tissue
radioactivity concentration, Kidney cortex (outer) ([1]; 1 hr): 9.52 nmol equivalents of olaparib per gram of tissue
radioactivity concentration, Large intestine mucosa ([1]; 1 hr): 12.1 nmol equivalents of olaparib per gram of tissue
radioactivity concentration, Liver ([1]; 1 hr): 112 nmol equivalents of olaparib per gram of tissue
radioactivity concentration, Meninges ([1]; 1 hr): 0.847 nmol equivalents of olaparib per gram of tissue
radioactivity concentration, Pineal body ([1]; 1 hr): 2.13 nmol equivalents of olaparib per gram of tissue
radioactivity concentration, Plasma ([1]; 1 hr): 9.69 nmol equivalents of olaparib per gram of tissue
radioactivity concentration, Small intestine mucosa ([1]; 1 hr): 60.5 nmol equivalents of olaparib per gram of tissue
radioactivity concentration, Spinal cord ([1]; 1 hr): BLQ
radioactivity concentration, Blood ([1]; 4 hr): 0.729 nmol equivalents of olaparib per gram of tissue
radioactivity concentration, Brain ([1]; 4 hr): BLQ
radioactivity concentration, Choroid plexus ([1]; 4 hr): 0.228 nmol equivalents of olaparib per gram of tissue
radioactivity concentration, Kidney cortex (outer) ([1]; 4 hr): 3.16 nmol equivalents of olaparib per gram of tissue
radioactivity concentration, Large intestine mucosa ([1]; 4 hr): 11.1 nmol equivalents of olaparib per gram of tissue
radioactivity concentration, Liver ([1]; 4 hr): 49.3 nmol equivalents of olaparib per gram of tissue
radioactivity concentration, Meninges ([1]; 4 hr): 0.500 nmol equivalents of olaparib per gram of tissue
radioactivity concentration, Pineal body ([1]; 4 hr): 0.318 nmol equivalents of olaparib per gram of tissue
radioactivity concentration, Plasma ([1]; 4 hr): 2.11 nmol equivalents of olaparib per gram of tissue
radioactivity concentration, Small intestine mucosa ([1]; 4 hr): 19.1 nmol equivalents of olaparib per gram of tissue
radioactivity concentration, Spinal cord ([1]; 4 hr): BLQ
radioactivity concentration, Blood ([1]; 8 hr): 0.171 nmol equivalents of olaparib per gram of tissue
radioactivity concentration, Brain ([1]; 8 hr): BLQ
radioactivity concentration, Choroid plexus ([1]; 8 hr): BLQ
radioactivity concentration, Kidney cortex (outer) ([1]; 8 hr): 1.49 nmol equivalents of olaparib per gram of tissue
radioactivity concentration, Large intestine mucosa ([1]; 8 hr): 39.8 nmol equivalents of olaparib per gram of tissue
radioactivity concentration, Liver ([1]; 8 hr): 14.7 nmol equivalents of olaparib per gram of tissue
radioactivity concentration, Meninges ([1]; 8 hr): BLQ
radioactivity concentration, Pineal body ([1]; 8 hr): 0.248 nmol equivalents of olaparib per gram of tissue
radioactivity concentration, Plasma ([1]; 8 hr): 0.180 nmol equivalents of olaparib per gram of tissue
radioactivity concentration, Small intestine mucosa ([1]; 8 hr): 7.93 nmol equivalents of olaparib per gram of tissue
radioactivity concentration, Spinal cord ([1]; 8 hr): BLQ
radioactivity concentration, Blood ([1]; 24 hr): BLQ^3
radioactivity concentration, Brain ([1]; 24 hr): BLQ
radioactivity concentration, Choroid plexus ([1]; 24 hr): BLQ
radioactivity concentration, Kidney cortex (outer) ([1]; 24 hr): 0.248 nmol equivalents of olaparib per gram of tissue
radioactivity concentration, Large intestine mucosa ([1]; 24 hr): 2.10 nmol equivalents of olaparib per gram of tissue
radioactivity concentration, Liver ([1]; 24 hr): 2.23 nmol equivalents of olaparib per gram of tissue
radioactivity concentration, Meninges ([1]; 24 hr): BLQ
radioactivity concentration, Pineal body ([1]; 24 hr): BLQ
radioactivity concentration, Plasma ([1]; 24 hr): 0.046 nmol equivalents of olaparib per gram of tissue
radioactivity concentration, Small intestine mucosa ([1]; 24 hr): 1.19 nmol equivalents of olaparib per gram of tissue
radioactivity concentration, Spinal cord ([1]; 24 hr): BLQ
radioactivity concentration, Blood ([1]; 72 hr): BLQ
radioactivity concentration, Brain ([1]; 72 hr): BLQ
radioactivity concentration, Choroid plexus ([1]; 72 hr): BLQ
radioactivity concentration, Kidney cortex (outer) ([1]; 72 hr): 0.202 nmol equivalents of olaparib per gram of tissue
radioactivity concentration, Large intestine mucosa ([1]; 72 hr): BLQ
radioactivity concentration, Liver ([1]; 72 hr): 0.604 nmol equivalents of olaparib per gram of tissue
radioactivity concentration, Meninges ([1]; 72 hr): BLQ
radioactivity concentration, Pineal body ([1]; 72 hr): BLQ
radioactivity concentration, Plasma ([1]; 72 hr): 0.009 nmol equivalents of olaparib per gram of tissue
radioactivity concentration, Small intestine mucosa ([1]; 72 hr): BLQ
radioactivity concentration, Spinal cord ([1]; 72 hr): BLQ
radioactivity concentration, Blood ([1]; 168 hr): BLQ
radioactivity concentration, Brain ([1]; 168 hr): BLQ
radioactivity concentration, Choroid plexus ([1]; 168 hr): BLQ
radioactivity concentration, Kidney cortex (outer) ([1]; 168 hr): BLQ
radioactivity concentration, Large intestine mucosa ([1]; 168 hr): BLQ
radioactivity concentration, Liver ([1]; 168 hr): 0.164 nmol equivalents of olaparib per gram of tissue
radioactivity concentration, Meninges ([1]; 168 hr): BLQ
radioactivity concentration, Pineal body ([1]; 168 hr): BLQ
radioactivity concentration, Small intestine mucosa ([1]; 168 hr): BLQ
radioactivity concentration, Spinal cord ([1]; 168 hr): BLQ
patients progression free at 6 months (PFS-6) (recurrent GBM; evaluable patients): 36% and 39%
number of patients progression free at 6 months (recurrent GBM; of 36 patients evaluable for efficacy): 14
Papp A→B at 120 min, 1 µM [2]: 1.66 ×10⁻⁶ cm/s
Papp A→B at 120 min, 3 µM [2]: 2.23 ×10⁻⁶ cm/s
Papp A→B at 120 min, 10 µM [2]: 2.46 ×10⁻⁶ cm/s
Papp B→A at 120 min, 1 µM [2]: 32 ×10⁻⁶ cm/s
Papp B→A at 120 min, 3 µM [2]: 29.7 ×10⁻⁶ cm/s
Papp B→A at 120 min, 10 µM [2]: 28.1 ×10⁻⁶ cm/s
